From patent US12679878B2, “CRF2 receptor agonists and their use in therapy” (SANOFI, priority 2020, dated 2026) come the findings set out here.

The target of test [1] is T1, human CRF2α receptor (Homo sapiens, UniProt Q13324).
T1 construct: expressed in transfected cells; host or cells: TeloHEAC
T1 sequence (Q13324 1-411): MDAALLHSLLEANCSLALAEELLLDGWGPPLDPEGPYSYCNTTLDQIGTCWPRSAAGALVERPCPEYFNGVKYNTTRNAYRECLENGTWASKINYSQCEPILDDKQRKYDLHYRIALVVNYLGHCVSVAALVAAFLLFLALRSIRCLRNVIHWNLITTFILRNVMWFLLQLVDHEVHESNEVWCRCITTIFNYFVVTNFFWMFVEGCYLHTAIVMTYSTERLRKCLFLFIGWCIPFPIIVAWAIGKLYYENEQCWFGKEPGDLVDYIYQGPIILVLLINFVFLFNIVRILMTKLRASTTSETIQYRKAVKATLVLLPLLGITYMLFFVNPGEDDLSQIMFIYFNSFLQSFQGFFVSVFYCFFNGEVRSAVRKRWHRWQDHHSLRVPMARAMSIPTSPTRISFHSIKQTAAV
Briefly: cAMP agonism at human CRF2 α receptor in TeloHEAC cells (Example 7). It is filed as cell-based. To be noted: cAMP HTRF, TeloHEAC cells stably expressing human CRF2 α. The procedure, abridged: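 Cryopreserved cells are thawed, washed and resuspended in IBMX-containing (2 mM) HEPES-buffered HBSS with or without 0.1% HSA. Compound incubation runs 30 min at room temperature with 2000 cells per well, then cAMP is measured by time-resolved FRET. Potency is expressed as EC50, efficacy relative to urocortin 2 at 1000 nM.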

Test [2] deals with T2, CRF1R receptor (Homo sapiens, UniProt P34998).
T2 construct: host or cells: CHO-K1 clone 2
T2 sequence (P34998 24-415): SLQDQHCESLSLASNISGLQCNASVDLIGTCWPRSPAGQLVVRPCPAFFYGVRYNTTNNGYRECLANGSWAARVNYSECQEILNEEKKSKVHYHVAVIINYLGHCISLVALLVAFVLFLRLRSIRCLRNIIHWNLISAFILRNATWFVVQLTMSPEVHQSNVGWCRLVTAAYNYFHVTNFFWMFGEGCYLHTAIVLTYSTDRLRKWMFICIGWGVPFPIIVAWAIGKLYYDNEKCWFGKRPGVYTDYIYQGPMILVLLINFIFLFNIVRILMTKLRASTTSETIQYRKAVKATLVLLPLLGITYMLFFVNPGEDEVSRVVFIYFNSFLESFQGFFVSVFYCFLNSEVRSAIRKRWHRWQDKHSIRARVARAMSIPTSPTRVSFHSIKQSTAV
Briefly: cAMP activity at anti-target CRF1R, CHO-K1 cell line clone 2 (Example 19.10). To be noted: CRF1R CHO-K1 clone 2; for EC50: 0% HSA, read-out: EC50 [nM] 0% HSA; for Emax: 100% = Sauvagine at 100 nM. It is filed as cell-based. The procedure, abridged: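 The cAMP read-out used the same protocol as the previous assay, except that Sauvagine at 100 nM set the 100% activation control. Cells were CHO-K1 clone 2 overexpressing CRF1R, cultured in F12 medium with 10% FBS and G418 and stored frozen until use.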

Setting [3] is: 0% HSA, read-out: EC50 [nM], 0% HSA.
Setting [4] is: 0.1% HSA, read-out: EC50 [nM], 0.1% HSA.

Where two headings read alike, the source gives them in different places. Starred links: 1 amine or outer side, 2 acyl side, 3 side chain; linkers in the order of their positions; H or OH if unused. Non-standard residues stand in square brackets, D forms with d. Residues, ends and D or L forms follow the SMILES beside them. Groups on a side chain read outwards from the residue. *: point of attachment. C18 diacid = O=C(O)CCCCCCCCCCCCCCCCC(=O)*; γGlu = O=C(O)[C@H](CCC(=O)[*:2])N[*:1]; AEEA = NCCOCCOCC(=O)O; Aib = CC(C)(N)C(=O)O Bounds are passed on as bounds.

Turning to `CC[C@H](C)[C@H](N)C(=O)N[C@H](C(=O)N[C@@H](CC(C)C)C(=O)N[C@@H](CO)C(=O)N[C@@H](CC(C)C)C(=O)N[C@@H](CC(=O)O)C(=O)N[C@H](C(=O)N1CCC[C@H]1C(=O)N[C@H](C(=O)N[C@@H](CCCCN)C(=O)N[C@@H](CC(C)C)C(=O)N[C@@H](CCCCNC(=O)COCCOCCNC(=O)COCCOCCNC(=O)CC[C@H](NC(=O)CCCCCCCCCCCCCCCCC(=O)O)C(=O)O)C(=O)N[C@@H](CCC(N)=O)C(=O)N[C@H](C(=O)N[C@@H](CC(C)C)C(=O)N[C@@H](CC(C)C)C(=O)N[C@@H](CCCCN)C(=O)N[C@@H](CCC(N)=O)C(=O)N[C@@H](C)C(=O)N[C@@H](CCCNC(=N)N)C(=O)N[C@@H](CCC(N)=O)C(=O)N[C@@H](CCCCN)C(=O)NC(C)(C)C(=O)N[C@@H](CCC(N)=O)C(=O)N[C@@H](CCCNC(=N)N)C(=O)N[C@@H](C)C(=O)N[C@@H](CCC(N)=O)C(=O)N[C@@H](C)C(=O)N[C@@H](CCC(=O)O)C(=O)N[C@@H](CCCCN)C(=O)N[C@@H](CC(N)=O)C(=O)N[C@@H](CCCCN)C(=O)N[C@@H](CCCNC(=N)N)C(=O)N[C@H](C(=O)N[C@@H](CC(C)C)C(=O)N[C@@H](CCC(=O)O)C(=O)N[C@@H](CCCNC(=N)N)C(=O)N[C@H](C(N)=O)C(C)C)[C@@H](C)CC)[C@@H](C)CC)[C@@H](C)CC)C(C)C)C(C)C` [compound 124] (H-IVLSLDVPIKLK([AEEA-AEEA-γGlu-C18 diacid])QILLKQARQK[Aib]QRAQAEKNKRILERV-NH2; N-terminus assumed), the EC50 – broadly, the concentration giving half of the maximal effect – in test [1] (setting [3]) is 0.11 nM; in test [1] (setting [4]) it was 4.37 nM; in test [2], above 100 nM. Besides, the Emax (usually the greatest response seen or fitted, relative to the assay's reference) in test [2] is -2.5%.

As for `CC[C@H](C)[C@H](N)C(=O)N[C@H](C(=O)N[C@@H](CC(C)C)C(=O)N[C@@H](CO)C(=O)N[C@@H](CC(C)C)C(=O)N[C@@H](CC(=O)O)C(=O)N[C@H](C(=O)N1CCC[C@H]1C(=O)N[C@H](C(=O)N[C@@H](CCCCN)C(=O)N[C@@H](CC(C)C)C(=O)N[C@@H](CCCCNC(=O)COCCOCCNC(=O)COCCOCCNC(=O)CC[C@H](NC(=O)CCCCCCCCCCCCCCCCC(=O)O)C(=O)O)C(=O)N[C@@H](CCC(N)=O)C(=O)N[C@H](C(=O)N[C@@H](CC(C)C)C(=O)N[C@@H](CC(C)C)C(=O)N[C@@H](CCC(=O)O)C(=O)N[C@@H](CCC(N)=O)C(=O)N[C@@H](C)C(=O)N[C@@H](CCCNC(=N)N)C(=O)N[C@@H](CCC(N)=O)C(=O)N[C@@H](CCCCN)C(=O)NC(C)(C)C(=O)N[C@@H](CCC(N)=O)C(=O)N[C@@H](CCCNC(=N)N)C(=O)N[C@@H](CCC(=O)O)C(=O)N[C@@H](CCC(N)=O)C(=O)N[C@@H](C)C(=O)N[C@@H](CCC(=O)O)C(=O)N[C@@H](CCCCN)C(=O)N[C@@H](CC(N)=O)C(=O)N[C@@H](CCCCN)C(=O)N[C@@H](CCCNC(=N)N)C(=O)N[C@H](C(=O)N[C@@H](CC(C)C)C(=O)N[C@@H](CCC(=O)O)C(=O)N[C@@H](CCCNC(=N)N)C(=O)N[C@H](C(N)=O)C(C)C)[C@@H](C)CC)[C@@H](C)CC)[C@@H](C)CC)C(C)C)C(C)C` [compound 125] (H-IVLSLDVPIKLK([AEEA-AEEA-γGlu-C18 diacid])QILLEQARQK[Aib]QREQAEKNKRILERV-NH2; N-terminus assumed), the EC50 is 0.47 nM in test [1] (setting [3]), 19.9 nM in test [1] (setting [4]) and above 100 nM in test [2]. For the same compound, the Emax in test [2] was 17.7%.

As to `CC[C@H](C)[C@H](N)C(=O)N[C@H](C(=O)N[C@@H](CC(C)C)C(=O)N[C@@H](CO)C(=O)N[C@@H](CC(C)C)C(=O)N[C@@H](CC(=O)O)C(=O)N[C@@H](C(=O)N1CCC[C@H]1C(=O)N[C@H](C(=O)N[C@@H](CCCCN)C(=O)N[C@@H](CC(C)C)C(=O)N[C@@H](CCCCNC(=O)COCCOCCNC(=O)COCCOCCNC(=O)CC[C@H](NC(=O)CCCCCCCCCCCCCCCCC(=O)O)C(=O)O)C(=O)N[C@@H](CCC(N)=O)C(=O)N[C@H](C(=O)N[C@@H](CC(C)C)C(=O)N[C@@H](CC(C)C)C(=O)N[C@@H](CCC(=O)O)C(=O)N[C@@H](CCC(N)=O)C(=O)N[C@@H](C)C(=O)N[C@@H](CCCCN)C(=O)N[C@@H](CCC(N)=O)C(=O)N[C@@H](CCCCN)C(=O)NC(C)(C)C(=O)N[C@@H](CCC(N)=O)C(=O)N[C@@H](CCCNC(=N)N)C(=O)N[C@@H](C)C(=O)N[C@@H](CCC(N)=O)C(=O)N[C@@H](C)C(=O)N[C@@H](CCC(=O)O)C(=O)N[C@@H](CCCCN)C(=O)N[C@@H](CC(N)=O)C(=O)N[C@@H](CCCCN)C(=O)N[C@@H](CCCNC(=N)N)C(=O)N[C@H](C(=O)N[C@@H](CC(C)C)C(=O)N[C@@H](CCC(=O)O)C(=O)N[C@@H](CCCNC(=N)N)C(=O)N[C@H](C(N)=O)C(C)C)[C@@H](C)CC)[C@@H](C)CC)[C@@H](C)CC)C(C)C)C(C)C` [compound 126] (H-IVLSLD[dV]PIKLK([AEEA-AEEA-γGlu-C18 diacid])QILLEQAKQK[Aib]QRAQAEKNKRILERV-NH2; N-terminus assumed), the values for the EC50 in test [1] (setting [3]), in test [1] (setting [4]) and in test [2] were 0.22 nM, 5.59 nM and above 100 nM, respectively. Further, the Emax in test [2] worked out at 36.5%.

Turning to `CC[C@H](C)[C@H](N)C(=O)N[C@H](C(=O)N[C@@H](CC(C)C)C(=O)N[C@@H](CO)C(=O)N[C@@H](CC(C)C)C(=O)N[C@@H](CC(=O)O)C(=O)N[C@@H](C(=O)N1CCC[C@H]1C(=O)N[C@H](C(=O)N[C@@H](CCCCN)C(=O)N[C@@H](CC(C)C)C(=O)N[C@@H](CCCCNC(=O)COCCOCCNC(=O)COCCOCCNC(=O)CC[C@H](NC(=O)CCCCCCCCCCCCCCCCC(=O)O)C(=O)O)C(=O)N[C@@H](CCC(N)=O)C(=O)N[C@H](C(=O)N[C@@H](CC(C)C)C(=O)N[C@@H](CC(C)C)C(=O)N[C@@H](CCCCN)C(=O)N[C@@H](CCC(N)=O)C(=O)N[C@@H](CCC(=O)O)C(=O)N[C@@H](CCCNC(=N)N)C(=O)N[C@@H](CCC(N)=O)C(=O)N[C@@H](CCCCN)C(=O)NC(C)(C)C(=O)N[C@@H](CCC(N)=O)C(=O)N[C@@H](CCCNC(=N)N)C(=O)N[C@@H](CCC(=O)O)C(=O)N[C@@H](CCCCN)C(=O)N[C@@H](C)C(=O)N[C@@H](CCC(=O)O)C(=O)N[C@@H](CCCCN)C(=O)N[C@@H](CC(N)=O)C(=O)N[C@@H](CCCCN)C(=O)N[C@@H](CCC(N)=O)C(=O)N[C@H](C(=O)N[C@@H](CC(C)C)C(=O)N[C@@H](C)C(=O)N[C@@H](CCC(N)=O)C(=O)N[C@H](C(N)=O)C(C)C)[C@@H](C)CC)[C@@H](C)CC)[C@@H](C)CC)C(C)C)C(C)C` [compound 134] (H-IVLSLD[dV]PIKLK([AEEA-AEEA-γGlu-C18 diacid])QILLKQERQK[Aib]QREKAEKNKQILAQV-NH2; N-terminus assumed), the EC50 is 0.07 nM in test [1] (setting [3]), 3.44 nM in test [1] (setting [4]) and above 100 nM in test [2]. Also, in test [2], the Emax is -8.6%.
